Test system: plasma Abeta1-40
Experiment: Plasma Abeta1-40 in human subjects after oral thiethylperazine (INNO-BIA plasma Abeta forms immunoassay)
Format: in vivo
Conditions: for average increase in plasma Abeta1-40: day 1; for subjects with an increase of plasma Abeta1-40: oral
Method: Samples of 10 ml venous blood were collected in standardized test tubes containing ethylene diamine tetraacetic acid (EDTA) and gently shaken 1-2 times. As soon as possible (within max. 30 min.) samples were centrifuged at 1600 g, room temperature for 10 min. Plasma was aliquoted into 6 portions of 0.5 ml. All aliquots were frozen into a deep freezer (-80° C.) within 10 min after the centrifugation and stored until use. Abeta measurements were performed using the bead-based INNO-BIA plasma Abeta forms immunoassay (Innogenetics/Fujirebio Europe, Gent, Belgium) according to the manufacturer's protocol. Plasma samples and all other kit reagents were prepared according to the manufacturer's protocol. In brief, plasma samples were thawed at room temperature, centrifuged at 4000 g for 10 min to remove any possible debris, vortexed and then diluted 3-fold using Plasma Diluent. After transferring into the filter plate diluted samples, controls and standards were washed and incubated shaking overnight at 4° C. after the addition of the first conjugate. On the next day, all wells were washed 3 times and incubated with detection conjugate for 1 h at room temperature. After another 3 times washing, reading solution was added to all wells and the measurements were performed on a Luminex IS 100 (Luminex Corporation, Austin, TX, USA) platform after 2 minutes of shaking. Luminex instrument settings used were: gate-7500 to 15000, sample volume-50 μL and counts per region-100 beads. Standard curve calculation was performed using Stata 14.2 (StataCorp, College Station, TX, USA) employing a four-parametric logistic fit (nl log4 command). All standards, controls, and the patients' samples were analyzed in duplicates; all samples from a given individual were assayed in one analytical run. The duplicate-averaged concentrations (in pg/ml) of the two biomarkers (Abeta1-40 and Abeta1-42) were calculated. In all eight standard-curves fitting models (4 runs×2 biomarkers), adjusted R-squared statistics were higher than 0.995, which speaks for excellent curve fitting quality. Herein below, thiethylperazine was used as thiethylperazine maleate, wherein the weight-based amounts [in mg] are indicated with respect to thiethylperazine; the weight-based amounts of thiethylperazine maleate [in mg] are indicated in parenthesis. […] On day 1 (t=0 h), blood samples were taken from all subjects. […] Plasma Abeta was considered an indicator of brain Abeta content and Abeta export with higher plasma Abeta concentrations indicating higher Abeta clearance from the brain (Ferrero, Williams et al. 2016, […], Chiao et al. 2016).

CCSc1ccc2c(c1)N(CCCN1CCN(C)CC1)c1ccccc1S2 [thiethylperazine, 2-(ethylsulfanyl)-10-[3-(4-methylpiperazin-1-yl)propyl]-10H-phenothiazine]
mean plasma Abeta1-40 concentration difference between responders and non-responders (6.5 mg thiethylperazine): 33.04 pg/mL
average increase in plasma Abeta1-40 (6.5 mg thiethylperazine): 7.8%
mean plasma Abeta1-40 concentration difference between responders and non-responders (13 mg thiethylperazine): 28.07 pg/mL
average increase in plasma Abeta1-40 (13 mg thiethylperazine): 7.8%
subjects with an increase of plasma Abeta1-40 (26 mg thiethylperazine (41.12 mg maleate) per day over three consecutive days, steady state, 15 subjects (comparative)): 40%
average change of plasma Abeta1-40 (26 mg thiethylperazine per day over three consecutive days, steady state): 6.5%
mean plasma Abeta1-40 concentration difference between responders and non-responders (26 mg thiethylperazine, steady state): 16.53 pg/mL
subjects with an increase of plasma Abeta1-40 (after second administration on day 1, dose of 13 mg thiethylperazine (20.56 mg maleate), 15 subjects): 87%
subjects with an increase of plasma Abeta1-40 (initial dose of 6.5 mg thiethylperazine (10.28 mg maleate), day 1, blood four hours after administration, 15 subjects): 53%
average increase in plasma Abeta1-40 higher compared to higher dose (lower dose 2-20 mg (6.5 mg and 13 mg) versus 26 mg): ≥ 20%

Source: patent US20250082647A1, “SPECIFIC DOSAGE OF PHENOTHIAZINE COMPOUNDS FOR USE IN TREATMENT OR PREVENTION OF ALZHEIMER'S DEMENTIA” (IMMUNGENETICS AG, priority 2022, published 2025)
